These results are taken from patent US10925881B2, “Treatment of conditions associated with hyperinsulinaemia” (Tensha Therapeutics, Inc., priority 2014, dated 2021).

Read-outs that look alike come from different tables or passages of the source.

Data set [1] is described as follows: at least one biological assay (not specified).
Data set [2] concerns the target BRD4(1) (Homo sapiens (Human), UniProt O60885). Briefly: Alpha-assay binding, BRD4 site 1. Particulars: for binding activity with the BRD4 site 1: result in words. On the procedure:
The binding activity of lead compounds with the BRD4 site 1 was determined by Alpha-assay with a 12-point dose response curve.

Data set [3] addresses BRD4(2) (Homo sapiens (Human), UniProt O60885). Briefly: Alpha-assay binding, BRD4 site 2. Particulars: for binding activity with the BRD4 site 2: result in words.
The test system of data set [4] is RIN-m5F. Briefly: Cell Titer-Glo rat insulinoma cell assay, RIN-m5F. The format is cell-based. The method, then:
(§1) Paclitaxel was used as a positive control.
(§2) Cells were seeded at 5000 cells per well in a 96-well microculture plate in a total volume of 100 μl/well and incubated for 24 hours. […] The concentrations tested for paclitaxel were, 10 μM, 2.5 μM, 0.625 μM, 0.156 μM, 0.0391 μM, 0.00977 μM, 0.00244 μM, 0.000610 μM, 0.000153 μM, and 0.0000381 μM. Duplicate data for RIN-5F was obtained where the test concentrations for paclitaxel were, 1 μM, 0.25 μM, 0.0625 μM, 0.0156 μM, 0.00391 μM, 0.000977 μM, 0.000244 μM, 0.0000610 μM, 0.0000153 μM, and 0.00000381 μM. After 168-192 total hours of culture 100 μl of media was removed from each well and 50 μl of Cell Titer-Glo (Promega #G7571) was added to each well. The plate was shaken for 2 minutes and allowed to equilibrate for 10 minutes. Luminescence was measured on a Tecan GENios microplate reader. Percent inhibition of cell viability was calculated relative to untreated control wells. All tests were performed in triplicate or quadruplicates at each concentration level. IC50 values were calculated using Prism 6.00 curve-fitting with a four parameter-logistic equation.
(§3) Cells were seeded at 5000 cells per well in a 96-well microculture plate in a total volume of 100 μl/well and incubated for 24 hours. […] After 168-192 total hours of culture 100 μl of media was removed from each well and 50 μl of Cell Titer-Glo (Promega #G7571) was added to each well. The plate was shaken for 2 minutes and allowed to equilibrate for 10 minutes. Luminescence was measured on a Tecan GENios microplate reader. Percent inhibition of cell viability was calculated relative to untreated control wells. All tests were performed in triplicate or quadruplicates at each concentration level. IC50 values were calculated using Prism 6.00 curve-fitting with a four parameter-logistic equation.
In general terms: Cellular ATP, detected with luciferase, serves as a proxy for viable cell number.

In data set [5] the test system is RIN-14B. Briefly: Cell Titer-Glo rat insulinoma cell assay, RIN-14B. The format is cell-based. On the procedure:
as §1, §2, §3

The subject of data set [6] is RIN-5F. Briefly: Cell Titer-Glo rat insulinoma cell assay, RIN-5F. The format is cell-based. Particulars: cell viability after 168-192 total hours of culture. On the procedure:
as §1, §2, §3

Data set [7] concerns RIN-m. Briefly: Cell Titer-Glo rat insulinoma cell assay, RIN-m. The format is cell-based. The method, then: as §1, §2, §3
The subject of data set [8] is RIN-m5F rat insulinoma cells. Briefly: RNA-Seq expression analysis of JQ1 treated RIN-m5F insulinoma cells. The format is cell-based. The conditions noted are these: 500 nM, 24 hr; result in words. The method, then:
As shown below, BET inhibition disrupts both oncogenic and pancreatic islet cell transcriptional profiles.
Cells were scraped and total RNA was extracted and purified using a Qiagen RNeasy Mini Kit (cat. 74104) as described in the manufacturer's protocol. […] For each sample, 4 μg of total RNA was then used in Illumina's TruSeq RNA sample preparation V2 kit. […] Libraries were sequenced on Illumina NextSeq 500 as paired-end 75-nt reads.
Sequence reads were analyzed with the TopHat—Cufflinks software pipeline. Average size of library molecules was 400 bp, therefore the—r parameter was set to […]. (Versions were: TopHat v2.0.9, Bowtie 2.1.0.0, Cufflinks v2.1.1). The rat (rn5) gene reference GTF file was obtained from Illumina iGenomes.

The subject of data set [9] is four rat insulinoma (RIN) cell lines, RIN-14B, RIN-m5F, RIN-m, and RIN-5. Briefly: Cell Titer-Glo rat insulinoma cell assay, statement for all four cell lines. The format is cell-based. Particulars: for cell viability at higher concentrations: cytotoxic effect; for IC50: read-out: IC50 values, all cell lines. On the procedure:
as §1
(§4) The plate was shaken for 2 minutes and allowed to equilibrate for 10 minutes. Luminescence was measured on a Tecan GENios microplate reader. Percent inhibition of cell viability was calculated relative to untreated control wells. All tests were performed in triplicate or quadruplicates at each concentration level. IC50 values were calculated using Prism 6.00 curve-fitting with a four parameter-logistic equation.
as §4

Take `Cc1sc2c(c1C)C(c1ccc(Cl)cc1)=NC(CC(=O)NN)c1nnc(C)n1-2` (stereo not shown) [Compound 3]: in [1], the “activity in at least one biological assay” value is recorded as “showed activity”.
As to `Cc1sc2c(c1C)C(c1ccc(Cl)cc1)=N[C@@H](CC(=O)N/N=C/c1ncc[nH]1)c1nnc(C)n1-2` [(S)-JQ6], the “binding activity with the BRD4 site 1” value in data set [2] is “excellent binding activity”. Further, the “binding activity with the BRD4 site 2” value in data set [3] was “excellent binding activity”.
With `Cc1sc2c(c1C)C(c1ccc(Cl)cc1)=N[C@@H](CC(=O)NCCN1CCN(C)CC1)c1nnc(C)n1-2` [(S)-JQ13], the “binding activity with the BRD4 site 1” value in data set [2] is given as “excellent binding activity”. In addition, the “binding activity with the BRD4 site 2” value in [3] was “excellent binding activity”.
The term IC50 denotes the concentration that gives 50% inhibition. For `Cc1sc2c(c1C)C(c1ccc(Cl)cc1)=N[C@@H](CC(=O)NCCN1CCOCC1)c1nnc(C)n1-2` (stereo in doubt) [(S)-JQ33], the IC50 in data set [2] (12-point dose response curve, read-out: Bio-assay IC50 BRD4(1)) worked out at 0.085 µM; in [3] (12-point dose response curve, read-out: Bio-assay IC50 BRD4(2)), 0.0295 µM. The “binding activity with the BRD4 site 1” value in data set [2] is “excellent binding activity”. Further, the “binding activity with the BRD4 site 2” value in [3] is reported as “excellent binding activity”.
As for `CC(=O)O[C@H]1C(=O)[C@@]2(C)[C@H]([C@H](OC(=O)c3ccccc3)[C@]3(O)C[C@H](OC(=O)[C@H](O)[C@@H](NC(=O)c4ccccc4)c4ccccc4)C(C)=C1C3(C)C)[C@]1(OC(C)=O)CO[C@@H]1C[C@@H]2O` [Paclitaxel, reference compound], the IC50 in data set [4] (Example 3, Table 1, cell viability after 168-192 total hours of culture, read-out: IC50 Values, RIN-m5F) came out at 0.00043 µM; in data set [5] (Example 3, Table 1, cell viability after 168-192 total hours of culture, read-out: IC50 Values, RIN-14B), 0.00133 µM; in [6] (Example 3, Table 1, duplicate data, read-out: IC50 Values, RIN-5F), 0.00314 µM; in data set [6] (Rattus norvegicus, Example 3, Table 1, duplicate data, read-out: IC50 Values, RIN-5F), 0.00163 µM; in data set [7] (Example 3, Table 1, cell viability after 168-192 total hours of culture, read-out: IC50 Values, RIN-m), 0.000718 µM.
Take `Cc1sc2c(c1C)C(c1ccc(Cl)cc1)=N[C@@H](CC(=O)NCCc1cnc[nH]1)c1nnc(C)n1-2` [(S)-JQ8]: in data set [2], the “binding activity with the BRD4 site 1” value is listed as “excellent binding activity”. Moreover, the “binding activity with the BRD4 site 2” value in data set [3] is reported as “excellent binding activity”.
Consider `Cc1sc2c(c1C)C(c1ccc(Cl)cc1)=NC(CC(=O)OC(C)(C)C)c1nnc(C)n1-2` (stereo not shown) [JQ1, tert-Butyl 2-(4-(4-chlorophenyl)-2,3,9-trimethyl-6H-thieno[3,2-f][1,2,4]triazolo[4,3-a][1,4]diazepin-6-yl)acetate], for which the “genes with decreased versus increased expression” value in data set [8] is recorded as “larger number of genes with decreased expression as compared to increased expression”.
For orientation: cell viability means a per cent measure of how many cells are alive, often set against a control. Low readings indicate a greater loss of cells, high ones better survival. For `Cc1sc2c(c1C)C(c1ccc(Cl)cc1)=N[C@@H](CC(=O)NCCCN1CCN(C)CC1)c1nnc(C)n1-2` (stereo in doubt) [(S)-JQ35], the IC50 in data set [4] (Example 8 additional data, cell viability after 168-192 total hours of culture, read-out: IC50 Values, RIN-m5F) is 0.188 µM; in data set [9] (Rattus norvegicus, RIN-m5F, Example 8) it was less than 0.2 µM; in [5] (Example 8 additional data, cell viability after 168-192 total hours of culture, read-out: IC50 Values, RIN-14B), 0.207 µM; in data set [6] (Example 8 additional data, two values, read-out: IC50 Values, RIN-5F) it was 0.215 µM; in [6] (Rattus norvegicus, Example 8 additional data, two values, read-out: IC50 Values, RIN-5F), 0.183 µM; in data set [7] (Example 8 additional data, cell viability after 168-192 total hours of culture, read-out: IC50 Values, RIN-m), 0.151 µM. Besides, the “binding activity with the BRD4 site 1” value in data set [2] is given as “excellent binding activity”. The “cell viability at higher concentrations” value in data set [9] (Example 8) is roughly 0%. Moreover, the “binding activity with the BRD4 site 2” value in data set [3] is listed as “excellent binding activity”.
For `Cc1sc2c(c1C)C(c1ccc(Cl)cc1)=N[C@@H](CC(=O)OC(C)(C)C)c1nnc(C)n1-2` [(S)-JQ1, (S)-tert-Butyl 2-(4-(4-chlorophenyl)-2,3,9-trimethyl-6H-thieno[3,2-f][1,2,4]triazolo [4,3-a][1,4]diazepin-6-yl)acetate], the IC50 in data set [4] (read-out: IC50 Values, RIN-m5F, Example 3, Table 1, cell viability after 168-192 total hours of culture) is 0.031 µM; in [4] (read-out: IC50 Values, RIN-m5F, Example 8 additional data, cell viability after 168-192 total hours of culture) it was 0.051 µM; in [9] (Rattus norvegicus, RIN-m5F) it was less than 0.1 µM; in [9] (Example 8), less than 0.1 µM; in [5] (read-out: IC50 Values, RIN-14B, Example 3, Table 1, cell viability after 168-192 total hours of culture) it was 0.017 µM; in [5] (read-out: IC50 Values, RIN-14B, Example 8 additional data, cell viability after 168-192 total hours of culture), 0.0207 µM. Further, the IC50 in [6] (Rattus norvegicus, read-out: IC50 Values, RIN-5F, Example 3, Table 1, duplicate data) amounted to 0.096 µM; in [6] (Rattus norvegicus, read-out: IC50 Values, RIN-5F, Example 8 additional data, two values), 0.052 µM; in data set [6] (read-out: IC50 Values, RIN-5F, Example 3, Table 1, duplicate data), 0.061 µM; in [6] (read-out: IC50 Values, RIN-5F, Example 8 additional data, two values), 0.0731 µM; in [7] (read-out: IC50 Values, RIN-m, Example 3, Table 1, cell viability after 168-192 total hours of culture), 0.034 µM; in data set [7] (read-out: IC50 Values, RIN-m, Example 8 additional data, cell viability after 168-192 total hours of culture) it was 0.0293 µM. The “cell viability at higher concentrations” value in data set [9] (Example 3) and in [9] (Example 8) was roughly 0% in each case.
